Measurements published in US20050153967A1, “Pharmaceutical compositions comprising 2-(4-ethoxy-phenyl)-3-(4-methanesulfonyl-phenyl)-pyrazolo'1,5-bipyridazine in nanoparticulate form” (priority 2002, published 2005).

How the values were obtained:
cyclooxygenase-2 (COX-2) = target: T1, cyclooxygenase-2 (COX-2) (Homo sapiens, UniProt P35354); conditions: cited from earlier work
T1 sequence (P35354 18-604): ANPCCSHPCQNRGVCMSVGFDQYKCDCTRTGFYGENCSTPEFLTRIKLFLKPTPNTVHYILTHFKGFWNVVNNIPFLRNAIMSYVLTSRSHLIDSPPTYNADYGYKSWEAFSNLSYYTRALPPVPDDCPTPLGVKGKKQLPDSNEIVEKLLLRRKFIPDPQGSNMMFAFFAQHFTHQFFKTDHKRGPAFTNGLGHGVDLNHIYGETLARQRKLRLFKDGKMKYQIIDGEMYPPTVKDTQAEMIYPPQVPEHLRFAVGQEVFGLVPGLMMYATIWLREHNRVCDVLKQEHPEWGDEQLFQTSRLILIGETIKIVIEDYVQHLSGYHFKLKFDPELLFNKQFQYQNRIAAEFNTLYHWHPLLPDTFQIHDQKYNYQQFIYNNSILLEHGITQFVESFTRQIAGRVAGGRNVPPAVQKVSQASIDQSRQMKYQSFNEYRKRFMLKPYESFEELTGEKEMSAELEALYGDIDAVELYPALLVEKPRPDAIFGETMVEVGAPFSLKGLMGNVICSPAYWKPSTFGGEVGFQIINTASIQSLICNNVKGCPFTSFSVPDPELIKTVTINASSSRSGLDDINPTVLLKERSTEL

[1] = Dissolution testing (in vitro prediction of bioavailability); assay type: physicochemical
Text: Dissolution testing is a well established technique for obtaining a correlation between in vitro and in vivo data in relation to compound bioavailability. […] As a result attempts were made to improve the bioavailability of compound (I). WO01/41760 (Pharmacia Corporation) discloses that the bioavailability of selective COX-2 inhibitory drugs of low water solubility may be enhanced by reducing the drug particle size, such that a substantial proportion are smaller than 1 μm.

dissolution, indicated bioavailability ([1]; co-formulation with HPMC-AS in an amorphous dispersion): enhanced
dissolution, predicted bioavailability ([1]; compound (I) in micronised form, preliminary dissolution experiments): poorly bioavailable
dissolution profile ([1]; pharmaceutical composition with compound (I) in nanoparticulate form): poor dissolution profile
Structure (SMILES): CCOc1ccc(-c2nn3ncccc3c2-c2ccc(S(C)(=O)=O)cc2)cc1 [compound (I), 2-(4-ethoxy-phenyl)-3-(4-methanesulfonyl-phenyl)-pyrazolo[1,5-b]pyridazine]
inhibition of cyclooxygenase-2 (COX-2) (cyclooxygenase-2 (COX-2)): potent and selective inhibitor
